Experiments:
Assay type in all cases: in vivo
rice (Oryza sativa L.) = test: Test Example 1, foliar treatment in upland pots; conditions: 20th to 22nd day after application, visual, read-out: Growth inhibition rate (%) Rice
Method in brief: (§1)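 Plants grown from seed in upland soil pots were sprayed over the foliage at green foxtail 1.5–3.0, rice 1.2–2.5, corn 2.0–3.3 leaf stage, soybean primary leaf to 0.3 leaf stage. Wettable powder or EC formulations were diluted in water at 500 L/ha with 0.1 vol% spreader. Growth inhibition (0–100%) was scored visually 20–22 days later.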

[1] = tested on: velvetleaf (Abutilon theophrasti MEDIC.); test: Test Example 1, foliar treatment in upland pots; conditions: 20th to 22nd day after application, visual, read-out: Growth inhibition rate (%) Velvetleaf
[2] = tested on: green foxtail (Setaria viridis L.); test: Test Example 1, foliar treatment in upland pots; conditions: 20th to 22nd day after application, visual, read-out: Growth inhibition rate (%) Green foxtail
Method in brief: as §1

wheat (Triticum spp.) = test: Test Example 1, foliar treatment in upland pots; conditions: 20th to 22nd day after application, visual, read-out: Growth inhibition rate (%) Wheat
[3] = tested on: soybean (Glycine max Merr.); test: Test Example 1, foliar treatment in upland pots; conditions: 20th to 22nd day after application, visual, read-out: Growth inhibition rate (%) Soybean
Method in brief: as §1

[4] = tested on: Japanese bulrush (Scirpus juncoides); test: Test Example 3, paddy field pot, application to irrigated water; conditions: Schoenoplectiella juncoides, applied at 0.5 leaf stage, 13th to 17th day after application, read-out: Growth inhibition rate (%) Japanese bulrush
Source text: (§2) Paddy field soil was put into a 1/1,000,000 hectare pot, and seeds of barnyardgrass (Echinochloa oryzicola vasing.) and Japanese bulrush (Scirpus juncoides) were sown and lightly covered with soil. Then, pot was left to stand in a greenhouse in a state irrigated to a water depth of from 0.5 to 1 cm, and next day or two days later, tubers of Japanese ribbon waparo (Sagittaria pygmaea) were planted. Then, the irrigated water depth was maintained to be from 3 to 4 cm, and when barnyardgrass and Japanese bulrush reached 0.5 leaf stage, and Japanese ribbon waparo reached primary leaf stage, a water diluted solution of a wettable powder or an emulsifiable concentrate of the compound of the present invention prepared in accordance with a conventional preparation method, was uniformly dropwise applied by a pipette so that the amount of active ingredients would be a prescribed amount. Further, paddy field soil was put into a 1/1,000,000 pot, followed by soil puddling to an irrigated water depth of from 3 to 4 cm. Next day, rice (Oryza sativa L.) (var.: Nihonbare) of two leaf stage was transplanted in a transplantation depth of 3 cm. On the 4th day after transplantation, the compound of the present invention was applied in the same manner as described above.
(§3) On the 13th to 17th day after application, the state of growth of barnyardgrass, Japanese bulrush and Japanese ribbon waparo was visually observed, and on the 20th to 23rd day after application, the state of growth of rice was visually observed, and the herbicidal effect was evaluated by a growth inhibition rate (%) of 0 (equivalent to the non-treated area) to 100% (complete kill).

[5] = tested on: Japanese ribbon waparo (Sagittaria pygmaea); test: as above; conditions: applied at primary leaf stage, 13th to 17th day after application, read-out: Growth inhibition rate (%) Japanese ribbon waparo
Source text: as §2, §3

[6] = tested on: barnyardgrass (Echinochloa oryzicola vasing.); test: as above; conditions: applied at 0.5 leaf stage, 13th to 17th day after application, read-out: Growth inhibition rate (%) barnyard grass
Source text: as §2, §3

[7] = tested on: prickly sida (Sida spinosa L.); test: Test Example 1, foliar treatment in upland pots; conditions: 20th to 22nd day after application, visual, read-out: Growth inhibition rate (%) Prickly sida

Row | SMILES | inhibition at 7 g/ha (rice (Oryza sativa L.)) [%] | inhibition at 7 g/ha [1] [%] | inhibition at 7 g/ha [2] [%] | inhibition at 7 g/ha (wheat (Triticum spp.)) [%] | inhibition at 7 g/ha [3] [%] | inhibition at 63 g/ha [4] [%] | inhibition at 63 g/ha [5] [%] | inhibition at 63 g/ha [6] [%] | inhibition at 7 g/ha [7] [%]
1 | COC(=O)OC(C)Oc1c(C(=O)c2ccc(S(C)(=O)=O)c(C(=O)OC)c2C)cnn1C (centres unmarked) [Compound No. 1-2, Methyl 3-(5-(1-(methoxycarbonyloxy)ethoxy)-1-methyl-1H-pyrazole-4-carbonyl)-2-methyl-6-(methylsulfonyl)benzoate] | 70 | 80 | 100 | 0 | 95 | 70 | 95 | 100 | 
2 | CCOC(=O)OC(C)Oc1c(C(=O)c2ccc(S(C)(=O)=O)c(OCCOC(C)C)c2C)cnn1C (centres unmarked) [Compound No. 1-5, Ethyl 1-(4-(3-(2-isopropoxyethoxy)-2-methyl-4-(methylsulfonyl)benzoyl)-1-methyl-1H-pyrazol-5-yloxy)ethyl carbonate] | 20 | 80 | 80 | 0 |  | 20 | 90 | 100 | 0
3 | COCCOc1c(S(C)(=O)=O)ccc(C(=O)c2c(C)nn(C)c2OC(C)OC(=O)OC)c1C (centres unmarked) [Compound No. 1-6, 1-(4-(3-(2-Methoxyethoxy)-2-methyl-4-(methylsulfonyl)benzoyl)-1,3-dimethyl-1H-pyrazol-5-yloxy)ethyl methyl carbonate] | 70 | 98 | 95 | 0 | 80 | 70 | 60 | 100 | 70
4 | CCCn1ncc(C(=O)c2ccc(S(C)(=O)=O)c(OCCOC)c2C)c1OC(C)OC(=O)OCC (centres unmarked) [Compound No. 3-1, Ethyl 1-(1-n-propyl-4-(3-(2-methoxyethoxy)-2-methyl-4-(methylsulfonyl)benzoyl)-1H-pyrazol-5-yloxy)ethyl carbonate] | 0 | 60 | 30 | 0 |  | 90 | 95 | 100 | 0
5 | COCCOc1c(S(C)(=O)=O)ccc(C(=O)c2cnn(C(C)C)c2OC(C)OC(=O)OC)c1C (centres unmarked) [Compound No. 4-1, 1-(1-Isopropyl-4-(3-(2-methoxyethoxy)-2-methyl-4-(methylsulfonyl)benzoyl)-1H-pyrazol-5-yloxy)ethyl methyl carbonate] | 80 | 100 | 95 | 0 | 95 | 98 | 70 | 100 | 60
6 | Cc1c(C(=O)c2cnn(C)c2O)ccc(S(C)(=O)=O)c1OCCC(C)C [Compound No. 5-1, (5-Hydroxy-1-methyl-1H-pyrazol-4-yl)(3-(2-isopropylethoxy)-2-methyl-4-(methylsulfonyl)phenyl)ketone] | 0 | 10 | 50 | 0 |  | 20 | 95 | 60 | 40
7 | COCCOc1c(S(C)(=O)=O)ccc(C(=O)c2c(C)nn(C)c2O)c1C [Compound No. 5-2, (5-Hydroxy-1,3-dimethyl-1H-pyrazol-4-yl)(3-(2-methoxyethoxy)-2-methyl-4-(methylsulfonyl)phenyl)ketone] | 50 | 70 | 100 |  | 70 | 70 | 80 | 80 | 40
8 | CCc1nn(C)c(O)c1C(=O)c1ccc(S(C)(=O)=O)c(OCCOC)c1C [Compound No. 5-3, (5-Hydroxy-1-methyl-3-ethyl-1H-pyrazol-4-yl)(3-(2-methoxyethoxy)-2-methyl-4-(methylsulfonyl)phenyl)ketone] | 50 | 80 | 90 |  | 0 | 50 | 50 | 60 | 30
9 | CCn1nc(C)c(C(=O)c2ccc(S(C)(=O)=O)c(OCCOC)c2C)c1O [Compound No. 6-1, (1-Ethyl-5-hydroxy-3-methyl-1H-pyrazol-4-yl)(3-(2-methoxyethoxy)-2-methyl-4-(methylsulfonyl)phenyl)ketone] | 20 | 50 | 60 | 0 |  | 80 | 60 | 60 | 0
10 | CCCn1ncc(C(=O)c2ccc(S(C)(=O)=O)c(OCCOC)c2C)c1O [Compound No. 7-1, (5-Hydroxy-1-n-propyl-1H-pyrazol-4-yl)(3-(2-methoxyethoxy)-2-methyl-4-(methylsulfonyl)phenyl)ketone] | 10 | 75 | 70 | 0 | 60 | 70 | 90 | 30 | 20
11 | COCCOc1c(S(C)(=O)=O)ccc(C(=O)c2cnn(C(C)C)c2O)c1C [Compound No. 8-1, (5-Hydroxy-1-isopropyl-1H-pyrazol-4-yl)(3-(2-methoxyethoxy)-2-methyl-4-(methylsulfonyl)phenyl)ketone] | 10 | 80 | 90 | 0 | 40 | 95 | 95 | 95 | 30

Source: patent US8466089B2, “Pyrazole compounds, process for their production and herbicides containing them” (Ishihara Sangyo Kaisha, Ltd., priority 2008, dated 2013)
